Columns and labels:
Balb/C mouse ears [1] = experiment: Calcipotriol (MC 903)-induced atopic dermatitis-like inflammation; format: in vivo; conditions: for MC 903-induced ear skin inflammation, histological analysis: compared to the control; for MC 903-induced transcription of pro-inflammatory genes (MMP13, COX2, IL-1β, IL-6, IL-10, IL-13 and TSLP): ear extracts, q-RT-PCR, D23; for expression of the TSLP lymphokine in MC 903-treated mouse epidermis: immunohistochemistry, data not shown; for MC 903-induced skin inflammation: topical, 8 days co-treatment with MC 903
Description: To investigate the CpdX anti-inflammatory activity in vivo, Balb/C mouse ears were topically treated with calcipotriol (MC 903, a vitamin D3 analogue), in order to induce an atopic dermatitis (AD)-like inflammation (Li et al., 2006. Proc Natl Acad Sci USA. 103[…].
Mice were treated for 14 days with MC 903, and then for 8 extra days (until D22) with either MC 903 alone (control), MC 903 and Dex, MC 903 and CpdX, MC 903 and CpdX(eA), MC 903 and CpdX(eB), MC 903 and CpdX-D3, MC 903 and CpdX-D3(eA) and MC 903 and CpdX-D3(eB).
At D23, RNA transcripts were extracted from mouse ear skin samples and the transcripts of 7 cytokines (MMP13, COX2, IL-1β, IL-6, IL-10, IL-13 and TSLP) were analyzed by q-RT-PCR. Ear skin was harvested and histological (with H&E staining) and immunohistochemical (with anti-TSLP antibodies) analyses were carried out.

Balb/C mouse ears [2] = experiment: TPA-induced irritant contact dermatitis-like inflammation; format: in vivo; conditions: for TPA-induced ear skin inflammation, histological analysis: compared to the control; for TPA-induced ear skin inflammation, histological analysis / expression of TSLP in TPA-treated mouse epidermis: data not shown; for TPA-induced transcription of pro-inflammatory genes: ear extracts, q-RT-PCR, D10; for expression of TSLP in TPA-treated mouse epidermis: immunochemistry with TSLP-specific antibody; for TPA-induced skin inflammation: topical, 5 days co-treatment with TPA
Description: Balb/C mouse ears were topically treated with TPA to induce an “irritant contact dermatitis-like inflammation”.
Mice were treated for 4 days with TPA, then for 5 extra days (until D9) with either vehicle, TPA alone, TPA and Dex, TPA and CpdX or TPA and CpdX-D3.
At D10, RNA transcripts were extracted from mouse ear skin samples and the transcripts of CCL4, COX2, MMP13, IL-1β, IL-6, TNF-α, TSLP, IL-22 and IL-23 were analyzed by q-RT-PCR. Ear skin was harvested, and histological (with H&E staining) and immunohistochemical (with anti-TSLP antibodies) analyses were carried out.

B6 male mice = experiment: Body weight and body composition after three-month treatment; format: in vivo, mouse; conditions: s.c. 1 mg/kg daily, 3 months, pDEXA
Description: B6 male mice (8-week-old) were daily subjected for three months to a subcutaneous injection of either vehicle (NaCl 0.9%), Dex, CpdX or CpdX-D3 (1 mg/kg body weight, diluted in vehicle. A pDEXA machine was used to determine the lean mass and fat mass. The statistical significance was calculated through Krustal-Walis test followed by a Dunn's multiple comparison test, *p<0.05; **p<0.01; ***p<0.001.

Balb/C mouse ears [3] = experiment: Aldara-induced psoriasis-like skin inflammation; format: in vivo; conditions: for induced expression of the Th17 cytokines IL-17a, IL-17c, IL-17f and IL-22: ear extracts, q-RT-PCR, D10; for Aldara-induced psoriasis-like skin inflammation, H&E histology: mouse, in vivo; for Aldara-induced psoriasis-like skin inflammation: topical co-treatment for the last 5 days, 1 nmole/cm^2
Description: Balb/C mouse ears were topically treated with Aldara® to induce a psoriasis-like skin inflammation (Vinter et al., 2015. Br J Dermatol. 172(2):345-53). Mice were treated for 9 days with Aldara®, including a co-topical treatment for the last 5 days with either ethanol (Vehicle), Dex, CpdX or CpdX-D3.
At D10, RNA transcripts were extracted from mouse ears and IL-17a, IL-17c, IL-17f and IL-22 transcripts were analyzed by q-RT-PCR. Ear skin samples were also harvested for histological analyses (with H&E staining).

mice = experiment: Ovalbumin (OVA)-induced asthma-like allergic lung inflammation; format: in vivo, mouse
Description: Glucocorticoids have been (Pearlman et al., 1997. Ann Allergy Asthma Immunol. 78(4):356-62), and are still, widely used in asthma therapy. In order to investigate the possible CpdX anti-inflammatory activity in vivo, mice were sensitized and challenged with either ovalbumin (OVA) or house dust mite (HDM) to induce an asthma-like allergic lung inflammation.
Mice were intraperitoneally sensitized with either 50 μg OVA together with alum or with alum alone on D0, D7 and D14. Mice were then subdivided into three groups, and on D19, D20 and D21, they were intranasally (i.n.) challenged with 10 μg OVA. The first and the second group received intranasally 0.5 mg/kg of body weight of Dex or CpdX respectively, while the third group served as a control.
On D22, the lung allergic inflammation was assessed for each mouse by examination of the bronchoalveolar lavage fluid (BAL). The total BAL cells, eosinophils, neutrophils, macrophages and lymphocytes were counted. RNA transcripts were extracted from lung samples and RNA transcripts of IL-1β, IL-6, IL-4, IL-5, IL-10, IL-13, Eotaxin, CCL4 and TNFα were analyzed by q-RT-PCR. Histological (with H&E staining) and immunohistochemical (with eosinophil-specific and neutrophil-specific antibodies) analyses of lung tissues were also carried out.

Structure (SMILES)	MC 903-induced ear skin inflammation, histological analysis (Balb/C mouse ears [1])	MC 903-induced transcription of pro-inflammatory genes (MMP13, COX2, IL-1β, IL-6, IL-10, IL-13 and TSLP) (Balb/C mouse ears [1])	expression of the TSLP lymphokine in MC 903-treated mouse epidermis (Balb/C mouse ears [1])	MC 903-induced skin inflammation (Balb/C mouse ears [1])	TPA-induced ear skin inflammation, histological analysis (Balb/C mouse ears [2])	TPA-induced transcription of pro-inflammatory genes (Balb/C mouse ears [2])	expression of TSLP in TPA-treated mouse epidermis (Balb/C mouse ears [2])	TPA-induced skin inflammation (Balb/C mouse ears [2])	fat mass (B6 male mice)	lean percentage / lean mass (B6 male mice)	induced expression of the Th17 cytokines IL-17a, IL-17c, IL-17f and IL-22 (Balb/C mouse ears [3])	Aldara-induced psoriasis-like skin inflammation, H&E histology (Balb/C mouse ears [3])	Aldara-induced psoriasis-like skin inflammation (Balb/C mouse ears [3])	eosinophils and neutrophils in lung, immunohistochemistry (mice; data not shown)	peribronchiolar and perivascular inflammatory cell infiltration (mice; histology of lung paraffin sections)	number of macrophages in BAL (mice; intranasal 0.5 mg/kg on D19-D21, BAL on D22)	total number of BAL cells, eosinophils, neutrophils and lymphocytes (mice; intranasal 0.5 mg/kg on D19-D21, BAL on D22, vs control group)	expressions of IL-1β, IL-6, IL-4, IL-5, IL-10, IL-13, Eotaxin, CCL4 and TNFα in lung samples (mice; q-RT-PCR, D22)
[2H]C([2H])([2H])Oc1ccc(F)cc1C(C)(C)CC(O)(CNc1ccc2c(c1)COC2=O)C(F)(F)F (racemic) [CpdX-D3, 5-{4-[2-(methoxy-D3)-5-fluorophenyl]-2-hydroxy-4-methyl-2-(trifluoro-methyl)pentylamino}isobenzofuran-1(3H)-one]	decreased	repressed, as efficiently as Dex	similarly strongly decreased	significantly decreased	significantly decreased	repressed, as efficiently as Dex	similarly strongly decreased	significantly decreased	commensurate increase	commensurate increase	similarly reduced	could reduce	significantly decreased	–	–	–	–	–
COc1ccc(F)cc1C(C)(C)CC(O)(CNc1ccc2c(c1)COC2=O)C(F)(F)F (racemic) [CpdX, 5-[4-(5-fluoro-2-methoxyphenyl)-2-hydroxy-4-methyl-2-(trifluoromethyl)pentylamino]-isobenzofuran-1(3H)-one]	decreased	repressed, as efficiently as Dex	similarly strongly decreased	significantly decreased	significantly decreased	repressed, as efficiently as Dex	similarly strongly decreased	significantly decreased	commensurate increase	commensurate increase	similarly reduced	could reduce	significantly decreased	similarly decreased	strongly decreased	unchanged	significantly decreased	significantly and similarly decreased

Source: patent publication US20190151283A1, “NON-STEROIDAL SELECTIVE GLUCOCORTICOID RECEPTOR AGONISTIC MODULATORS (SEGRAMs) AND USES THEREOF” (ASSOCIATION POUR LA RECHERCHE À L'IGBMC (ARI), priority 2017, published 2019)
